Measured values from article PMC5918173, “Characterization of Transglutaminase 2 activity inhibitors in monocytes in vitro and their effect in a mouse model for multiple sclerosis” (PLoS ONE, 2018).

Legend:
[1] = target: T1, recombinant human TG2 (hTG2) (Homo sapiens, UniProt P21980); assay: Inhibition of recombinant Transglutaminase activity (fluorescent substrate), human TG2; format: biochemical; details: recombinant human TG2, Fig 2A
T1 construct: purchased Zedira
T1 sequence (P21980 1-687): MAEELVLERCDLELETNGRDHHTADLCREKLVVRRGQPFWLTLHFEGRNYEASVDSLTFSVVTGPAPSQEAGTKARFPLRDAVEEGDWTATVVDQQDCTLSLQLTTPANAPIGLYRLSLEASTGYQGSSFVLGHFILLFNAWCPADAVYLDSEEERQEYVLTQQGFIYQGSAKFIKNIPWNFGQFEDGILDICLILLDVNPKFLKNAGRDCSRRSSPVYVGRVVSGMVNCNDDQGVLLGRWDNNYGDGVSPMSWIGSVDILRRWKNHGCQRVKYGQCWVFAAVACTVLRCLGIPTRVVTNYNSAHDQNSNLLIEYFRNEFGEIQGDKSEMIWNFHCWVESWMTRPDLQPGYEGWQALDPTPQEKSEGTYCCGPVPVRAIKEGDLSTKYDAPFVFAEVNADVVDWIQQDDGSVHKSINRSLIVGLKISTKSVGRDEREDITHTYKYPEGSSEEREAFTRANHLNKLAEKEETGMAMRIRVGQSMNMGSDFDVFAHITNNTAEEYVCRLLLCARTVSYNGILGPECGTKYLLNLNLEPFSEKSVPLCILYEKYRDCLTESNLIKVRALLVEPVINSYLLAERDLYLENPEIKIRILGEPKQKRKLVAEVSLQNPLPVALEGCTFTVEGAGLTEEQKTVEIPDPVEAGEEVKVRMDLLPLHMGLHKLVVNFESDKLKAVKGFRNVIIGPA
Procedure: (§1) The potency and specificity of TG2 inhibitors was assessed with various recombinant TGs, as previously described. The reaction buffer (50 mM Tris, 100 mM NaCl, 10 mM CaCl2, 5 mM H-Gly-OMe*HCl (glycinemethylestherhydrochloride, Sigma), 5 mM hexadimethinbromide (Sigma), 9.1 mM DTT, pH 7.5) was heated to 37°C in a 96 well plate. Then 50 μM of the TG substrate Abz-NE(CAD-DNP)EQVSPLTLLK-OH (Zedira) was added. 1 μg/ml recombinant TG (human TG1, human (hTG2) / mouse TG2 (mTG2) or human Factor XIII (FXIII); Zedira) were added. The two lyophilized TG2 inhibitors (see Fig 1 for chemical structure) BJJF078 (3,4-Dimethoxy-N-(5-[4-(acryloylamino)piperidine-1-sulfonyl]-naphthalen-1-yl)-benzamide, kindly provided by Dr S. El Alaoui, Covalab, France) and ERW1041E (2-[(3-Bromo-4,5-dihydro-isoxazol-5-ylmethyl)-carbamoyl]-pyrrolidine-1—carboxylic acid quinolin-3-ylmethyl ester, kindly provided by Prof C. Khosla, Stanford University, USA) were dissolved in DMSO (stock solution: 54 mM) and stored at -80°C. These stocks were further diluted and various concentrations of the TG2 inhibitors (0.3 nM to 100 μM), were added to the wells (final DMSO concentration per well: 0.06%). The relative increase in fluorescence emission, correlating with enzymatic activity, was measured over 4 h with a fluorimeter (Excitation: 320nm, emission: 405 nm; Fluostar, GMB).

[2] = target: T2, human Factor XIII (FXIII) (Homo sapiens, UniProt P00488); assay: Inhibition of recombinant Transglutaminase activity (fluorescent substrate), human Factor XIII; format: biochemical; details: Fig 2C, read-out: IC50 to inhibit FXIII activity
T2 construct: purchased Zedira
T2 sequence (P00488 1-732): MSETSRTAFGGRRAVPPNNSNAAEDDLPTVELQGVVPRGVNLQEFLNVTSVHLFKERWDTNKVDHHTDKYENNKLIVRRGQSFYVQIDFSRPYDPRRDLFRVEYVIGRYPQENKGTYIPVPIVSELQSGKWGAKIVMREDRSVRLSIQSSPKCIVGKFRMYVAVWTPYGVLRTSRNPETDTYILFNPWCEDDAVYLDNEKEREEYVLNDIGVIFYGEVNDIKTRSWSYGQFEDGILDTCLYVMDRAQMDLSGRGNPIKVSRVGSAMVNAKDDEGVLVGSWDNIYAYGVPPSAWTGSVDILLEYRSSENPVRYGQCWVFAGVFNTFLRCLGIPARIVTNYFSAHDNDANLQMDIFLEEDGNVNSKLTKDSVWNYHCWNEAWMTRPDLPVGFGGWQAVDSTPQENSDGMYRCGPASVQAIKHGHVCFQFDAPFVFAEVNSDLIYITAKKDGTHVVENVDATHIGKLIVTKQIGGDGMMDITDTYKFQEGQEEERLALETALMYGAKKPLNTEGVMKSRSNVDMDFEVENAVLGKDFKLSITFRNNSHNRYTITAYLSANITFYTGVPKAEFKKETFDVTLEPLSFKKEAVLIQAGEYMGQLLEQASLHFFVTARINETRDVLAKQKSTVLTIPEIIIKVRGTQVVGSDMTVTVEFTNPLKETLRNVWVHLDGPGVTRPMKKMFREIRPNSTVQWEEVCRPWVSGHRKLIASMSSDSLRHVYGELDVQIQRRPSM
Procedure: as §1

[3] = tested on: inflammatory mediator mRNA in spinal cord; assay: qPCR of inflammation-related genes in spinal cord of EAE mice; format: in vivo, mouse; details: normalized to GAPDH
Procedure: Total RNA from snap frozen spinal cord (pooled cervical, thoracic and lumbar region) was isolated using Trizol (Invitrogen) according to the manufacturer’s protocol. RNA concentration and purity was determined with a NanoDrop 2000 spectrophotometer (Thermo Fisher Scientific). Purity was accepted with a 260/230 nm absorbance ratio of 2.00–2.20 and a 260/280 ratio of 1.90.-2.00. For reverse transcription into cDNA, 1 μg of RNA was used with the High-Capacity cDNA Reverse Transcription kit (Life Technologies), using 50 pmol oligo-dT16 primers, according to the manufacturer’s instructions. For quantitative real-time PCR (qPCR), Power SYBR Green Master Mix (Applied Biosystems) was used according to manufacturer’s protocol. Intron-spanning primers (Table 2) were designed with Primer-BLAST [29], purchased from Eurogentec and used at 3.75 pmol per 12.5 ng cDNA in each reaction. Subsequently, qPCR was performed according to the previously published MIQE guidelines. The qPCR reaction was performed in a total volume of 20 μl in MicroAmp Optical 96-well Reaction Plates on a StepOnePlus Real-Time PCR system (Applied Biosystems). The thermal cycling conditions were an initial 10 min at 95°C followed by 50 cycles of 15 s at 95°C and 1 min at 60°C. The reaction specificity was verified by a melt curve analysis. The relative expression level of the target genes was determined by the LinRegPCR software (http://www.hfrc.nl, downloads, applications, lin reg PCR, version 2017) using the following calculation N0 = Nq/ECq (N0 = target quantity, Nq = fluorescence threshold value, E = mean PCR efficiency per amplicon, Cq = threshold cycle. The obtained values were normalized to glyceraldehyde-3-phosphate-dehydrogenase expression (GAPDH).

[4] = proposed; reference not given; cited from earlier work

| IC50 [1] [µM] | IC50 [2] [µM] | Structure (SMILES) | IL-1ra mRNA level in spinal cord versus vehicle ([3]; Fig 7a) | IL-1β mRNA level in spinal cord versus vehicle ([3]; Fig 7b) | IFNγ mRNA level in spinal cord versus vehicle ([3]; Fig 7c) | iNOS mRNA level in spinal cord versus vehicle ([3]; Fig 7e) | TNFα mRNA level in spinal cord versus vehicle ([3]; Fig 7d) | inhibitory in vivo half-life [4] [h] |
| --- | --- | --- | --- | --- | --- | --- | --- | --- |
| 0.041 | 22 | C=CC(=O)NC1CCN(S(=O)(=O)c2cccc3c(NC(=O)c4ccc(OC)c(OC)c4)cccc23)CC1 [BJJF078, 3,4-Dimethoxy-N-(5-[4-(acryloylamino)piperidine-1-sulfonyl]-naphthalen-1-yl)-benzamide] | – | – | – | – | – | – |
| 1.6 | 52 | O=C(NCC1CC(Br)=NO1)C1CCCN1C(=O)OCc1cnc2ccccc2c1 (stereo not shown) [ERW1041E, 2-[(3-Bromo-4,5-dihydro-isoxazol-5-ylmethyl)-carbamoyl]-pyrrolidine-1—carboxylic acid quinolin-3-ylmethyl ester] | not significantly changed | not significantly changed | not significantly changed | slightly but not significantly enhanced | slightly but not significantly enhanced | 12 |
